Source: US10131702B2, “Glucagon-GLP-1-GIP triple agonist compounds” (priority 2013, dated 2018)
pEC50: −log10 of the molar value. Read-outs that look alike come from different tables or passages of the source. Numbered stars: 1 amine (or outer) side, 2 acyl side, 3 side chain; on linkers, the order of the positions; unused ones are H or OH. Square brackets hold non-standard residues; d marks the D form. Side chains are listed from the residue outwards. Peptide text beside a SMILES is read from it. * marks the point of attachment. C18 diacid = O=C(O)CCCCCCCCCCCCCCCCC(=O)*; γGlu = O=C(O)[C@H](CCC(=O)[*:2])N[*:1]; Stearoyl = CCCCCCCCCCCCCCCCCC(=O)*; AEEA = NCCOCCOCC(=O)O; Aib = CC(C)(N)C(=O)O

What was measured:
Assay type in all cases: cell-based
human GIP R = molecular target: T1, human GIP R (Homo sapiens, UniProt P48546); assay: cAMP induction in HEK293 cells expressing human GIP R (AlphaScreen cAMP kit)
T1 construct: expressed in transfected cells
T1 sequence (P48546 22-466): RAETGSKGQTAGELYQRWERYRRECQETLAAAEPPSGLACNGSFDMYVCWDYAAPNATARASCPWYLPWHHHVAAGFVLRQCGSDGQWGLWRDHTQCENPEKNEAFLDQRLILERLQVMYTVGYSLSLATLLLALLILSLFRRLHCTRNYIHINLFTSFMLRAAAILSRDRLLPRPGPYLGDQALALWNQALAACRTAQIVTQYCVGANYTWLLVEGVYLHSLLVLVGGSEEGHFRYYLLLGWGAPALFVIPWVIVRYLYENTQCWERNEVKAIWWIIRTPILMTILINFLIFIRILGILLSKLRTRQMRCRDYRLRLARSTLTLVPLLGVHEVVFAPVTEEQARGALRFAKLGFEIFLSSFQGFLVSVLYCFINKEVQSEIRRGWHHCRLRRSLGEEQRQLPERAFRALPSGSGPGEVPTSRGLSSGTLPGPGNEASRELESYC

human GLP-1 R = molecular target: T2, human GLP-1 R (Homo sapiens, UniProt P43220); assay: cAMP induction in HEK293 cells expressing human GLP-1 R (AlphaScreen cAMP kit); conditions: average EC50, cAMP, HEK293 cells expressing human GLP-1 R, read-out: GLP1 R (EC50 in nM)
T2 construct: expressed in transfected cells

human GCG R = molecular target: T3, human GCG R (Homo sapiens, UniProt P47871); assay: cAMP induction in HEK293 cells expressing human GCG R (AlphaScreen cAMP kit); conditions: for EC50: average EC50, cAMP, HEK293 cells expressing human GCG R, read-out: GCG R (EC50 in nM)
T3 construct: expressed in transfected cells
Procedure: Briefly, HEK293 cells expressing the human GIP R, GLP-1 R or GCG R (stable cell lines generated through transfection of the cDNA for human GIP R, GLP-1 R or GCG R and selection of stable clones) were seeded at 30,000 cells/well in 96-well microtiter plates coated with 0.01% poly-L-lysine, and grown for 1 day in culture in 200 μl growth medium (DMEM, 10% FCS, Penicillin (100 IU/ml), Streptomycin (100 μg/ml)). On the day of analysis, growth medium was removed and the cells were washed once with 150 μl Tyrode's buffer (Tyrode's Salts (9.6 g/l), 10 mM HEPES, pH 7.4). […] The Assay buffer was removed and cells are lysed in 80 μl Lysis buffer (0.1% w/v BSA, 5 mM HEPES, 0.3% v/v Tween-20) per well. From each well 10 μl of lysed cells were transferred to a 384-well plate and mixed with 15 μl bead-mix (1 Unit/15 μl anti-cAMP Acceptor Beads, 1 Unit/15 μl Donor Beads, and 1 Unit/15 μl Biotinylated cAMP in Assay Buffer). The plates were mixed and incubated in the dark for an hour at room temperature before measuring using an Envision™ plate reader (Perkin-Elmer).
The resulting cAMP curves were plotted as absolute cAMP concentrations (nM) over log (test compound concentration) and analyzed using the curve fitting program XLfit.
Parameters calculated to describe both the potency as well as the agonistic activity of each test compound on the receptors were:
EC50, a concentration resulting in a half-maximal elevation of cAMP levels, reflecting the potency of the test compound.

[1] = Table 2b (most comprehensive data), average EC50, cAMP, read-out: GIP R (EC50 in nM)
[2] = Table 2b (most comprehensive data)
[3] = GIP R (EC50 in nM), Table 2, average EC50, cAMP
[4] = GIP R (EC50 in nM), Table 2b (most comprehensive data), average EC50, cAMP

T2 sequence (P43220 24-463): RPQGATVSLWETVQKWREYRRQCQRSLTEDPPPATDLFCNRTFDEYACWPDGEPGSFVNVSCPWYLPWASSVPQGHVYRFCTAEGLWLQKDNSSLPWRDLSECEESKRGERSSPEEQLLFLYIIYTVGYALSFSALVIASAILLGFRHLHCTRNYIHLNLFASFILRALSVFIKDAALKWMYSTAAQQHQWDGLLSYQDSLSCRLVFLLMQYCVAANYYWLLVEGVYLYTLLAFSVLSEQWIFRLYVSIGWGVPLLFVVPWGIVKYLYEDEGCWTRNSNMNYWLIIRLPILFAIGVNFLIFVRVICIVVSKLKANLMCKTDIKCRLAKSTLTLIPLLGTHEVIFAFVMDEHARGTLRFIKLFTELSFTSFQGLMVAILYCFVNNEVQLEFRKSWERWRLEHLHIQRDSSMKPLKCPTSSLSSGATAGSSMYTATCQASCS
T3 sequence (P47871 26-477): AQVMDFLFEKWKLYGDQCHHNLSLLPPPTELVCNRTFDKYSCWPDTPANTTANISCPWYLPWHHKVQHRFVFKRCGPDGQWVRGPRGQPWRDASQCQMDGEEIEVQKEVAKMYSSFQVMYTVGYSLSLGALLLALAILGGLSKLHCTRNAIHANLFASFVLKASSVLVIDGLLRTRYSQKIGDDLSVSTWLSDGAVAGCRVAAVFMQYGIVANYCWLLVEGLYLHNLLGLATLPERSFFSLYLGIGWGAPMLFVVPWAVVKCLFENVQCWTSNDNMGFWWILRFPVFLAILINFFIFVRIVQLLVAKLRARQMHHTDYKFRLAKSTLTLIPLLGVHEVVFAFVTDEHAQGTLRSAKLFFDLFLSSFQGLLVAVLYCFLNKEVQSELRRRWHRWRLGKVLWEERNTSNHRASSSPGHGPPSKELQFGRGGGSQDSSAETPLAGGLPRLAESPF

SMILES	EC50 (human GIP R; [1])	EC50 (human GLP-1 R; [2])	EC50 (human GCG R; [2])	EC50 (human GIP R; [3])	EC50 (human GIP R; [4])	EC50 (human GLP-1 R; Table 2)	pEC50 (human GCG R)	EC50 (human GIP R; Table 2, average EC50, cAMP, read-out: GIP R (EC50 in nM))	EC50 (human GCG R; Table 2)
CC[C@H](C)[C@H](NC(=O)[C@H](CO)NC(=O)[C@H](Cc1ccc(O)cc1)NC(=O)[C@H](CC(=O)O)NC(=O)[C@H](CO)NC(=O)[C@@H](NC(=O)[C@H](Cc1ccccc1)NC(=O)[C@@H](NC(=O)CNC(=O)[C@H](CCC(N)=O)NC(=O)C(C)(C)NC(=O)[C@@H](N)Cc1ccc(O)cc1)[C@@H](C)O)[C@@H](C)O)C(=O)N[C@@H](Cc1ccc(O)cc1)C(=O)N[C@@H](CC(C)C)C(=O)N[C@@H](CC(=O)O)C(=O)N[C@@H](CCCCN)C(=O)N[C@@H](CCCCNC(=O)COCCOCCNC(=O)COCCOCCNC(=O)CC[C@H](NC(=O)CCCCCCCCCCCCCCCCC(=O)O)C(=O)O)C(=O)N[C@@H](C)C(=O)N[C@@H](CCC(N)=O)C(=O)N[C@@H](CCCNC(=N)N)C(=O)N[C@@H](C)C(=O)N[C@@H](Cc1ccccc1)C(=O)N[C@H](C(=O)N[C@@H](CCC(=O)O)C(=O)N[C@@H](Cc1c[nH]c2ccccc12)C(=O)N[C@@H](CC(C)C)C(=O)N[C@@H](CC(C)C)C(=O)N[C@@H](C)C(=O)N[C@@H](CCC(N)=O)C(=O)NCC(=O)N1CCC[C@H]1C(=O)N[C@@H](CO)C(=O)N[C@@H](CO)C(=O)NCC(=O)N[C@@H](C)C(=O)N1CCC[C@H]1C(=O)N1CCC[C@H]1C(=O)N1CCC[C@H]1C(=O)N[C@@H](CO)C(N)=O)C(C)C [Compound 33] (H-Y[Aib]QGTFTSDYSIYLDKK([AEEA-AEEA-γGlu-C18 diacid])AQRAFVEWLLAQGPSSGAPPPS-NH2)	0.009 nM	0.114 nM	0.58 nM						
CCCCCCCCCCCCCCCCCC(=O)N[C@@H](CCC(=O)NCCOCCOCC(=O)NCCOCCOCC(=O)NCCCC[C@H](NC(=O)[C@H](CCCCN)NC(=O)[C@H](CC(=O)O)NC(=O)[C@H](CC(C)C)NC(=O)[C@H](Cc1ccc(O)cc1)NC(=O)[C@@H](NC(=O)[C@H](CO)NC(=O)[C@H](Cc1ccc(O)cc1)NC(=O)[C@H](CC(=O)O)NC(=O)[C@H](CO)NC(=O)[C@@H](NC(=O)[C@H](Cc1ccccc1)NC(=O)[C@@H](NC(=O)CNC(=O)[C@H](CCC(N)=O)NC(=O)C(C)(C)NC(=O)[C@@H](N)Cc1ccc(O)cc1)[C@@H](C)O)[C@@H](C)O)[C@@H](C)CC)C(=O)N[C@@H](C)C(=O)N[C@@H](CCC(N)=O)C(=O)N[C@@H](CCCNC(=N)N)C(=O)N[C@@H](C)C(=O)N[C@@H](Cc1ccccc1)C(=O)N[C@H](C(=O)N[C@@H](CCC(=O)O)C(=O)N[C@@H](Cc1c[nH]c2ccccc12)C(=O)N[C@@H](CC(C)C)C(=O)N[C@@H](CC(C)C)C(=O)N[C@@H](C)C(=O)N[C@@H](CCC(N)=O)C(=O)NCC(=O)N1CCC[C@H]1C(=O)N[C@@H](CO)C(=O)N[C@@H](CO)C(=O)NCC(=O)N[C@@H](C)C(=O)N1CCC[C@H]1C(=O)N1CCC[C@H]1C(=O)N1CCC[C@H]1C(=O)N[C@@H](CO)C(N)=O)C(C)C)C(=O)O [Compound 35] (H-Y[Aib]QGTFTSDYSIYLDKK([AEEA-AEEA-γGlu-Stearoyl])AQRAFVEWLLAQGPSSGAPPPS-NH2)	0.012 nM	1.85 nM	0.011 nM						
CC[C@H](C)[C@H](NC(=O)[C@H](CO)NC(=O)[C@H](Cc1ccc(O)cc1)NC(=O)[C@H](CC(=O)O)NC(=O)[C@H](CO)NC(=O)[C@@H](NC(=O)[C@H](Cc1ccccc1)NC(=O)[C@@H](NC(=O)CNC(=O)[C@H](CCC(N)=O)NC(=O)C(C)(C)NC(=O)[C@@H](N)Cc1ccc(O)cc1)[C@@H](C)O)[C@@H](C)O)C(=O)N[C@@H](Cc1ccc(O)cc1)C(=O)N[C@@H](CC(C)C)C(=O)N[C@@H](CC(=O)O)C(=O)N[C@@H](CO)C(=O)N[C@@H](CCCCN)C(=O)N[C@@H](C)C(=O)N[C@@H](C)C(=O)N[C@@H](Cc1c[nH]cn1)C(=O)N[C@@H](CC(=O)O)C(=O)N[C@@H](Cc1ccccc1)C(=O)N[C@H](C(=O)N[C@@H](CCC(=O)O)C(=O)N[C@@H](Cc1c[nH]c2ccccc12)C(=O)N[C@@H](CC(C)C)C(=O)N[C@@H](CC(C)C)C(=O)N[C@@H](CCCNC(=N)N)C(=O)N[C@@H](C)C(N)=O)C(C)C [Compound 12] (HELM PEPTIDE1{Y.[Aib].Q.G.T.F.T.S.D.Y.S.I.Y.L.D.S.K.A.A.H.D.F.V.E.W.L.L.R.A.[am]}$$$$V2.0)				0.084 nM	0.012 nM	0.012 nM	10.12		
CC[C@H](C)[C@H](NC(=O)[C@H](CO)NC(=O)[C@H](Cc1ccc(O)cc1)NC(=O)[C@H](CC(=O)O)NC(=O)[C@H](CO)NC(=O)[C@@H](NC(=O)[C@H](Cc1ccccc1)NC(=O)[C@@H](NC(=O)CNC(=O)[C@H](CCC(N)=O)NC(=O)C(C)(C)NC(=O)[C@@H](N)Cc1ccc(O)cc1)[C@@H](C)O)[C@@H](C)O)C(=O)N[C@@H](Cc1ccc(O)cc1)C(=O)N[C@@H](CC(C)C)C(=O)N[C@@H](CC(=O)O)C(=O)N[C@@H](CCC(=O)O)C(=O)N[C@@H](CCCCN)C(=O)N[C@@H](C)C(=O)N[C@@H](C)C(=O)N[C@@H](Cc1c[nH]cn1)C(=O)N[C@@H](CC(=O)O)C(=O)N[C@@H](Cc1ccccc1)C(=O)N[C@H](C(=O)N[C@@H](CCC(=O)O)C(=O)N[C@@H](Cc1c[nH]c2ccccc12)C(=O)N[C@@H](CC(C)C)C(=O)N[C@@H](CC(C)C)C(=O)N[C@@H](CO)C(=O)N[C@@H](C)C(N)=O)C(C)C [Compound 9] (HELM PEPTIDE1{Y.[Aib].Q.G.T.F.T.S.D.Y.S.I.Y.L.D.E.K.A.A.H.D.F.V.E.W.L.L.S.A.[am]}$$$$V2.0)				0.056 nM		0.0055 nM	10.01		
CCCCCCCCCCCCCCCC(=O)N[C@@H](CCC(=O)NCCCC[C@H](NC(=O)[C@H](CCCCN)NC(=O)[C@H](CCC(=O)O)NC(=O)[C@H](CC(C)C)NC(=O)[C@H](Cc1ccc(O)cc1)NC(=O)[C@@H](NC(=O)[C@H](CO)NC(=O)[C@H](Cc1ccc(O)cc1)NC(=O)[C@H](CC(=O)O)NC(=O)[C@H](CO)NC(=O)[C@@H](NC(=O)[C@H](Cc1ccccc1)NC(=O)[C@@H](NC(=O)CNC(=O)[C@H](CCC(N)=O)NC(=O)C(C)(C)NC(=O)[C@@H](N)Cc1ccc(O)cc1)[C@@H](C)O)[C@@H](C)O)[C@@H](C)CC)C(=O)N[C@@H](C)C(=O)N[C@@H](C)C(=O)N[C@@H](CCCCN)C(=O)N[C@@H](CCC(=O)O)C(=O)N[C@@H](Cc1ccccc1)C(=O)N[C@H](C(=O)N[C@@H](CCC(=O)O)C(=O)N[C@@H](Cc1c[nH]c2ccccc12)C(=O)N[C@@H](CC(C)C)C(=O)N[C@@H](CC(C)C)C(=O)N[C@@H](CO)C(=O)N[C@@H](C)C(N)=O)C(C)C)C(=O)O [Compound 23] (HELM PEPTIDE1{Y.[Aib].Q.G.T.F.T.S.D.Y.S.I.Y.L.E.K.K.A.A.K.E.F.V.E.W.L.L.S.A.[am]}|PEPTIDE2{[CCCCCCCCCCCCCCCC(=O)[*:2]].[gGlu]}$PEPTIDE1,PEPTIDE2,17:R3-2:R2$$$V2.0)						0.11 nM		0.13 nM	0.14 nM
CC[C@H](C)[C@H](NC(=O)[C@H](CO)NC(=O)[C@H](Cc1ccc(O)cc1)NC(=O)[C@H](CC(=O)O)NC(=O)[C@H](CO)NC(=O)[C@@H](NC(=O)[C@H](Cc1ccccc1)NC(=O)[C@@H](NC(=O)CNC(=O)[C@H](CCC(N)=O)NC(=O)C(C)(C)NC(=O)[C@@H](N)Cc1ccc(O)cc1)[C@@H](C)O)[C@@H](C)O)C(=O)N[C@@H](Cc1ccc(O)cc1)C(=O)N[C@@H](CC(C)C)C(=O)N[C@@H](CCC(=O)O)C(=O)N[C@@H](CCCCN)C(=O)N[C@@H](CCCCN)C(=O)N[C@@H](C)C(=O)N[C@@H](C)C(=O)N[C@@H](CCCCN)C(=O)N[C@@H](CCC(=O)O)C(=O)N[C@@H](Cc1ccccc1)C(=O)N[C@H](C(=O)N[C@@H](CCC(=O)O)C(=O)N[C@@H](Cc1c[nH]c2ccccc12)C(=O)N[C@@H](CC(C)C)C(=O)N[C@@H](CC(C)C)C(=O)N[C@@H](CO)C(=O)N[C@@H](C)C(N)=O)C(C)C [Compound 20] (HELM PEPTIDE1{Y.[Aib].Q.G.T.F.T.S.D.Y.S.I.Y.L.E.K.K.A.A.K.E.F.V.E.W.L.L.S.A.[am]}$$$$V2.0)				0.047 nM	0.009 nM	0.0094 nM	10.24		
CC(C)C[C@H](NC(=O)[C@H](C)NC(=O)[C@H](CCCCN)NC(=O)[C@H](CO)NC(=O)[C@H](Cc1ccc(O)cc1)NC(=O)[C@H](CC(=O)O)NC(=O)[C@H](CO)NC(=O)[C@@H](NC(=O)[C@H](Cc1ccccc1)NC(=O)[C@@H](NC(=O)CNC(=O)[C@H](CCC(N)=O)NC(=O)C(C)(C)NC(=O)[C@@H](N)Cc1ccc(O)cc1)[C@@H](C)O)[C@@H](C)O)C(=O)N[C@@H](CC(=O)O)C(=O)N[C@@H](CO)C(=O)N[C@@H](CCCCN)C(=O)N[C@@H](C)C(=O)N[C@@H](C)C(=O)N[C@@H](Cc1c[nH]cn1)C(=O)N[C@@H](CC(=O)O)C(=O)N[C@@H](Cc1ccccc1)C(=O)N[C@H](C(=O)N[C@@H](CCC(=O)O)C(=O)N[C@@H](Cc1c[nH]c2ccccc12)C(=O)N[C@@H](CC(C)C)C(=O)N[C@@H](CC(C)C)C(=O)N[C@@H](CO)C(=O)N[C@@H](C)C(N)=O)C(C)C [Compound 7] (HELM PEPTIDE1{Y.[Aib].Q.G.T.F.T.S.D.Y.S.K.A.L.D.S.K.A.A.H.D.F.V.E.W.L.L.S.A.[am]}$$$$V2.0)				0.42 nM		0.031 nM	10.07		
